Where two headings read alike, the source gives them in different places.
Tests used:
[1] = molecular target: T1, hBChE (human plasma) (Homo sapiens, UniProt P06276); test: biochemical; type: biochemical; details: human plasma BChE, mean of at least three experiments
T1 construct: Human plasma was used as a source of BChE; from tissue; host or cells: human plasma from heparinized blood
Experimental: (§1) Human recombinant AChE (EC 3.1.1.7), 5,5′-dithiobis(2-nitrobenzoic acid) (Ellman′s reagent, DTNB), phosphate buffer (PB, 0.1 M, pH 7.4), and acetylthiocholine (ATC) and butyrylthiocholine (BTC), were purchased from Sigma-Aldrich, Prague, Czech Republic. Human plasma was used as a source of BChE and was prepared from heparinized human blood. The blood was centrifuged for 20 min (4 °C, 2300× g) on a Hettich Universal 320R centrifuge. The plasma was separated and stored at […]. Polystyrene Nunc 96-well microplates with a flat bottom shape (ThermoFisher Scientific, Waltham, MA, USA) were used for measuring purposes.
(§2) All of the assays were carried out in a 0.1 M phosphate buffer, pH 7.4. The assay medium (100 µL) consisted of 40 µL of 0.1 M phosphate buffer (pH 7.4), 20 µL of 0.01 M DTNB, 10 µL of the enzyme, and 20 µL of 0.01 M substrate ATC/BTC iodide solution).
(§3) The tested compounds were preincubated for 5 min prior to use. The reaction was initiated immediately upon addition of 20 µL of the substrate. […] Each concentration was assayed in triplicate. Software GraphPad Prism 5 (San Diego, CA, USA) was used in the evaluation of the statistical data.

[2] = molecular target: T2, human recombinant AChE (Homo sapiens, UniProt P22303); test: biochemical; type: biochemical; details: mean of at least three experiments
T2 construct: purchased Sigma-Aldrich, Prague, Czech Republic
T2 sequence (P22303 32-614): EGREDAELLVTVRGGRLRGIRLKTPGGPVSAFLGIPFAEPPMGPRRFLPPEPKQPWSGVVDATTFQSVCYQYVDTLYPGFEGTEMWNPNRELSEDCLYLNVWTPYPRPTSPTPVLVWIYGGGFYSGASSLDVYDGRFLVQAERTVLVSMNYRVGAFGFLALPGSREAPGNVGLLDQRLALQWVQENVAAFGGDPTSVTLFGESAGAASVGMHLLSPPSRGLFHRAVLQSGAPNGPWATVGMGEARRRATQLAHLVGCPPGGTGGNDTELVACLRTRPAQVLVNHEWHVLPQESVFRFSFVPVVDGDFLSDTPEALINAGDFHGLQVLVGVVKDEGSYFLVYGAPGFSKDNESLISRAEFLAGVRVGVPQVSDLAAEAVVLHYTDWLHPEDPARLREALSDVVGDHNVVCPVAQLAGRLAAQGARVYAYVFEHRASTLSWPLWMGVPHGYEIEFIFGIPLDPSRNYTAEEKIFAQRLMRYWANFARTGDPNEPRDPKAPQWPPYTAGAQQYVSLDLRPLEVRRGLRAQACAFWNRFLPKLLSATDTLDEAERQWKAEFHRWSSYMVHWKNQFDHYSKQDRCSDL
Experimental: as §1, §2, §3

[3] = system: CCD-18Co fibroblasts; test: MTT assay, CCD-18Co; type: cell-based; details: for IC50: Homo sapiens, CCD-18Co
Experimental: Human lung carcinoma cell line A549 and CCD-18Co colon fibroblasts were purchased from the American Type Culture Collection (ATCC, Rockville, MD, USA). The A549 cells were cultured in a complete RPMI-1640 medium (Sigma-Aldrich, St. Louis, MO, USA), and CCD-18Co cells were cultured in an MEM medium (PAN-Biotech GmbH, Aidenbach, Germany). The media were supplemented with 10% fetal bovine serum (FBS; Biosera, Nuaille, France) and antibiotics (1% Antibiotic-Antimycotic 100× and 50 × 10^−3 g l^−1 gentamicin; Biosera) at 37 °C, 95% humidity, and 5% CO2.
Prior to the selected treatments, cells were seeded on 12-well μ-Chamber slides (ibidi GmbH, Martinsried, Germany) and 6 and/or 96-well plates (TPP, Trasadingen, Switzerland) and left to settle for 24 h. The biscoumarin derivative solutions (at concentrations ranging from 10–100 µM) were then added to cells for 24 or 48 h, and analysis was subsequently performed.
MTT assays were performed in order to evaluate changes in the metabolic activity of cells that had occurred as a consequence of treatment with the biscoumarin derivatives. A549 cells (15 × 10^3 cells/cm^2) and CCD-18Co ([…]) were seeded in 96-well microplates. The cells were treated for 24 and 48 h with different concentrations (10, 25, 35, 50, 65, 75, and 100 µM) of the derivatives. After the treatment, the MTT (3-(4,5-dimethylthiazol-2-yl)-2,5-diphenyltertrazolium bromide) solution in PBS (5 mg mL^−1) was added to each well. […]. The absorbance of formazan (λ = 584 nm) was measured using a BMG FLUOstar Optima spectrometer (BMG Labtech GmbH, Offenburg, Germany). The results were evaluated as percentages of the absorbance of the untreated control. Results are presented as the average percentage of cells from three independent experiments. IC50 values for the derivatives were extrapolated from a sigmoidal fit (dose–response curve) to the metabolic activity data using OriginPro 8.5.0 SR1 (OriginLab Corp., Northampton, MA, USA).

[4] = system: A549 cells; test: Mitotic activity (Ki67 index) by immunolabelling and confocal microscopy; type: cell-based, human; details: 24 h, control 90.6 ± 5.7%
Experimental: (§4) The studied biscoumarin derivatives were added to cells seeded on 12-well μ-Chamber slides for 24 h. After cultivation with the derivatives, the samples (both the control without the derivatives and experimental groups) were washed with a 0.1 M PBS solution buffer to remove all non-cell-absorbed derivative residues and fixed with 4% paraformaldehyde for 20 min at RT. Alternatively, cells were incubated with Mitotracker Red (0.5 µM; Thermo Fisher Scientific, Waltham, MA, USA) for 30 min at 37 °C, washed with 0.1 M PBS, and fixed with 4% paraformaldehyde for 20 min at RT. For the quantification of proliferative activity and programmed cell death, samples were incubated overnight at 4 °C with the mouse anti-Ki67 antibody (NCL-L-Ki67-MM1, 1:100, Leica Biosystems, Wetzlar, Germany) and rabbit anti-cleaved PARP (cat. no. 94885, 1:100, Cell Signaling, Danvers, MA, USA) diluted in 0.1 M PBS containing 1% normal donkey serum (Jackson Immunoresearch, Cambridgeshire, Great Britain) and 0.3% Triton-X 100. […]
All samples were evaluated using a Leica TCS SP5X confocal system (Leica Microsystems, Mannheim, Germany). The biscoumarin derivatives were visualized in cells using a 405 nm laser, and the fluorescence was captured in the range of 420–480 nm with identical exposure parameters for all samples. […] Microphotographs were taken with a 40× objective lens (NA = 0.75; voxel size 223 × 223 nm) and a 63× oil lens (NA = 1.4; voxel size 171 × 171 nm); the images were captured and analyzed using LAS AF software (Leica Microsystems, Wetzlar, Germany).
The proliferative activity of cells incubated with the studied derivatives was expressed as a Ki67 index. In all samples (n = 3 samples per each experimental group), the number of Ki67^+ nuclei was calculated in groups of 100 randomly selected cells. […]

[5] = system: A549 cells; test: Apoptosis by cleaved PARP immunolabelling; type: cell-based, human; details: A549, 24 h
Experimental: as §4
All samples were evaluated using a Leica TCS SP5X confocal system (Leica Microsystems, Mannheim, Germany). The biscoumarin derivatives were visualized in cells using a 405 nm laser, and the fluorescence was captured in the range of 420–480 nm with identical exposure parameters for all samples. […]

T1 sequence (P06276 29-602): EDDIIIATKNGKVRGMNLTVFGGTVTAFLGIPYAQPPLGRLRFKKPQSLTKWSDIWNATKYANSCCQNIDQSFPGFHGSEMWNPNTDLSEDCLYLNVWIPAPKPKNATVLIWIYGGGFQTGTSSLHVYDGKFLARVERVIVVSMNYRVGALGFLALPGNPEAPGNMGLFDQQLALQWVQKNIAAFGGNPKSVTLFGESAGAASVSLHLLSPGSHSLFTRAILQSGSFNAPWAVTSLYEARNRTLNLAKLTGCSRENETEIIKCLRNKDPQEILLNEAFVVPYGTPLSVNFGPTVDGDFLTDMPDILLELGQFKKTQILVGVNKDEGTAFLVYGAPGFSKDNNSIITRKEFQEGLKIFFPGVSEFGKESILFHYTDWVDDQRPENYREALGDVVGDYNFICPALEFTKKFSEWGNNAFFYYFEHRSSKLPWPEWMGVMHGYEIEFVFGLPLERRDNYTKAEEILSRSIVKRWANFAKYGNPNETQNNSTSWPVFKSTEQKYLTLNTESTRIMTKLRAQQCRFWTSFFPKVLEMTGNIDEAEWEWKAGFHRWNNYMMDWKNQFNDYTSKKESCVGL

Compound: COC(=O)Cc1cc(=O)oc2cc(OCCCCCCCCN3CCN(CCNC(=O)Cc4cc(=O)oc5cc(O)ccc45)CC3)ccc12 [12e, Methyl 2-[7-({2-[4-(2-{[2-(7-hydroxy-2-oxo-2H-4-chromenyl)acetyl]amino}etyl)piperazino]oktyl}oxy)-2-oxo-2H-4-chromenyl]acetate]
- IC50 ± S.E.M. hBChE [1]: did not show inhibitory activity
- IC50 ([1]; read-out: IC50 ± S.E.M. hBChE): > 500 µM
- IC50 ± S.E.M. hAChE [2]: did not show inhibitory activity
- IC50 ([2]; read-out: IC50 ± S.E.M. hAChE): > 500 µM
- Metabolic activity of CCD-18Co cells (in words) ([3]; 24 or 48 h): significantly reduced metabolic activity
- IC50 ([3]; 24 h, read-out: IC50 CCD-18Co 24 h): > 100 µM
- IC50 ([3]; read-out: IC50 CCD-18Co 48 h, 48 h): > 100 µM
- IC50 ([3]; time not stated, read-out: IC50 CCD-18Co): > 100 µM
- Number of proliferating cells (Ki67 index) ([4]; 35 µM): 59.4 ± 2.6%
- Number of proliferating cells (Ki67 index) ([4]; 65 µM): 16.5 ± 12.9%
- Apoptotic cells (cleaved PARP) [5]: ≤ 0.001%

From article PMC8068036, “Synthesis of New Biscoumarin Derivatives, In Vitro Cholinesterase Inhibition, Molecular Modelling and Antiproliferative Effect in A549 Human Lung Carcinoma Cells” (International Journal of Molecular Sciences, 2021)
